Laboratory results from patent publication US11318232B2, “Compositions and methods for delivering drugs to a vessel wall” (Interface Biologics, Inc., priority 2018, dated 2022).

System: Rat Aortic Smooth Muscle Cells (RASMCs)
Details: drug spiked directly into growth media, 20 ng/mL

## CO[C@H]1C[C@@H]2CC[C@@H](C)[C@@](O)(O2)C(=O)C(=O)N2CCCC[C@H]2C(=O)O[C@H]([C@H](C)C[C@@H]2CC[C@@H](O)[C@H](OC)C2)CC(=O)[C@H](C)/C=C(\C)[C@@H](O)[C@@H](OC)C(=O)[C@H](C)C[C@H](C)/C=C/C=C/C=C/1C [sirolimus]
  Normalized cell growth at 72 hours: 0.463±0.035
